Experiment [1] has as its system synthesis of LTB4 in human whole blood. The experiment can be described thus: LTB4 production inhibition assay in human whole blood (HWB). It is filed as cell-based. To be noted: heparinized human whole blood, 15 min at 37° C., Calcimycin 20 μM 30 min, plasma LTB4 by HTRF. How it is done: The compounds of the invention are additionally tested in a human whole blood (HWB) assay to determine their ability to inhibit the synthesis of LTB4 in a cellular system. Compounds are combined with heparinized human whole blood and incubated for 15 minutes at 37° C. Calcimycin (20 μM final, prepared in phosphate-buffered saline, pH 7.4) is then added and the mixture is incubated for another 30 minutes at 37° C. The samples are centrifuged for 5 min at low speed (1500×g) and the plasma layer is removed. Plasma LTB4 concentrations are then measured using an antibody-based homogenous time-resolved fluorescence method (CisBio, Bedford, Mass.).

The target of the next experiment is human LTA4 hydrolase (Homo sapiens (Human), UniProt P09960). As to the kind of experiment: LTA4H Enzyme assay (peptidase, Arg-AMC cleavage). It is filed as biochemical. To be noted: LTA4H Enzyme 1 nM, Arg-AMC substrate 50 μM, room temperature 1 h, fluorescence. How it is done: The compounds of the invention are assessed for the ability to interact with human LTA4 hydrolase in an enzymatic assay that measures the ability of the enzyme to cleave the peptide bond of arginyl-aminomethylcoumarin (Arg-AMC). LTA4H Enzyme (1 nM final), Arg-AMC substrate (50 μM final), and compound are combined in a reaction buffer (50 mM Tris-HCl (pH 7.5), 100 mM KCl, 0.5% bovine serum albumin) at room temperature for 1 h. The formation of product is assessed by measuring the fluorescence of aminomethylcoumarin product (excitation wavelength 380 nm/emission wavelength 460 nm).

Experimental findings from patent publication US9573957B2 (Boehringer Ingelheim International GmbH, priority 2013, dated 2017) are described below.

Sequence of human LTA4 hydrolase (P09960 whole entry): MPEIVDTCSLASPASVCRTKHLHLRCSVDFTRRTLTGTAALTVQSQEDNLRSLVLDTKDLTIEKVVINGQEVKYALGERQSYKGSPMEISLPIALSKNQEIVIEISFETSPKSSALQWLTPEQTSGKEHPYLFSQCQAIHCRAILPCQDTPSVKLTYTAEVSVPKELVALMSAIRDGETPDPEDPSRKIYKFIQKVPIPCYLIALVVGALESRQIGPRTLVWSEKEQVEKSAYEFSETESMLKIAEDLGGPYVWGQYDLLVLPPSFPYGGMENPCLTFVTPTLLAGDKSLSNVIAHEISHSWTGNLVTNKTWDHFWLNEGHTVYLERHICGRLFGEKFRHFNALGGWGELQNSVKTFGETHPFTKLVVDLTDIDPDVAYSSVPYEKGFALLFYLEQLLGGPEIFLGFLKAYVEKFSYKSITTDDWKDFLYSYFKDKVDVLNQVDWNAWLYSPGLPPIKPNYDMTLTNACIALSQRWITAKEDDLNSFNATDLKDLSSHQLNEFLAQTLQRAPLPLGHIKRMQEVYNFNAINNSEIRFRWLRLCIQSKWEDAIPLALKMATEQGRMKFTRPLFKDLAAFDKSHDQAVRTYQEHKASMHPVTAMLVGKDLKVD

What is called IC50 is the concentration that inhibits the measured activity by half. On to `OC1CN(Cc2ccc3cc(Oc4ccc(-c5ccn[nH]5)cn4)ccc3c2)C1` [Example 1, 1-{6-[5-(2H-Pyrazol-3-yl)-pyridin-2-yloxy]-naphthalen-2-ylmethyl}-azetidin-3-ol], for which the IC50 was 140 nM in experiment [1] and 0.43 nM at human LTA4 hydrolase.
As for `NC(=O)C1CN(Cc2ccc3cc(Oc4ccc(-c5ccn[nH]5)cn4)ccc3c2)C1` [Example 2, 1-{6-[5-(2H-Pyrazol-3-yl)-pyridin-2-yloxy]-naphthalen-2-ylmethyl}-azetidine-3-carboxylic acid amide], the concentration for half-maximal inhibition (IC50) in experiment [1] came out at 210 nM; against human LTA4 hydrolase it was 0.46 nM.
On to `CC(=O)NC1CN(Cc2ccc3cc(Oc4ccc(-c5ccn[nH]5)cn4)ccc3c2)C1` [Example 3, N-(1-{6-[5-(2H-Pyrazol-3-yl)-pyridin-2-yloxy]-naphthalen-2-ylmethyl}-azetidin-3-yl)-acetamide], for which the IC50 in experiment [1] stood at 200 nM; at human LTA4 hydrolase it was 0.5 nM.
The corresponding values for `OCC1CN(Cc2ccc3cc(Oc4ccc(-c5ccn[nH]5)cn4)ccc3c2)C1` [Example 4, (1-{6-[5-(2H-Pyrazol-3-yl)-pyridin-2-yloxy]-naphthalen-2-ylmethyl}-azetidin-3-yl)-methanol] are 160 nM and 0.48 nM.
The corresponding values for `O[C@H]1CCN(Cc2ccc3cc(Oc4ccc(-c5ccn[nH]5)cn4)ccc3c2)C1` [Example 5, (S)-1-{6-[5-(2H-Pyrazol-3-yl)-pyridin-2-yloxy]-naphthalen-2-ylmethyl}-pyrrolidin-3-ol] are 130 nM and 0.6 nM.
With `O[C@@H]1CCN(Cc2ccc3cc(Oc4ccc(-c5ccn[nH]5)cn4)ccc3c2)C1` [Example 6, (R)-1-{6-[5-(2H-Pyrazol-3-yl)-pyridin-2-yloxy]-naphthalen-2-ylmethyl}-pyrrolidin-3-ol], the IC50 came to 130 nM in experiment [1] and 0.57 nM on human LTA4 hydrolase.
The corresponding values for `O=C(CO)N1CCN(Cc2ccc3cc(Oc4ccc(-c5ccn[nH]5)cn4)ccc3c2)CC1` [Example 7, 2-Hydroxy-1-(4-{6-[5-(2H-pyrazol-3-yl)-pyridin-2-yloxy]-naphthalen-2-ylmethyl}-piperazin-1-yl)-ethanone] are 120 nM and 0.4 nM.
The corresponding values for `O=C1[C@@H](O)CCN1C1CCN(Cc2ccc3cc(Oc4ccc(-c5ccn[nH]5)cn4)ccc3n2)CC1` [Example 8, (S)-3-Hydroxy-1-(1-{6-[5-(2H-pyrazol-3-yl)-pyridin-2-yloxy]-quinolin-2-ylmethyl}-piperidin-4-yl)-pyrrolidin-2-one] are 230 nM and 0.86 nM.
The corresponding values for `O=C(CO)NC1CCN(Cc2ccc3cc(Oc4ccc(-c5ccn[nH]5)cn4)ccc3c2)CC1` [Example 9, 2-Hydroxy-N-(1-{6-[5-(2H-pyrazol-3-yl)-pyridin-2-yloxy]-naphthalen-2-ylmethyl}-piperidin-4-yl)-acetamide] are 170 nM and 0.5 nM.
Turning to `OC1CC2(C1)CN(Cc1ccc3cc(Oc4ccc(-c5ccn[nH]5)cn4)ccc3c1)C2` [Example 10, 2-{6-[5-(2H-Pyrazol-3-yl)-pyridin-2-yloxy]-naphthalen-2-ylmethyl}-2-aza-spiro[3.3]heptan-6-ol], the IC50 in experiment [1] turned out to be 150 nM; at human LTA4 hydrolase it was 0.48 nM.
In the case of `CC1(O)CN(Cc2ccc3cc(Oc4ccc(-c5ccn[nH]5)cn4)ccc3c2)C1` [Example 11, 3-Methyl-1-{6-[5-(2H-pyrazol-3-yl)-pyridin-2-yloxy]-naphthalen-2-ylmethyl}-azetidin-3-ol], the IC50 worked out at 110 nM in experiment [1] and 0.53 nM against human LTA4 hydrolase.
Take `CC(=O)N[C@@H]1CCN(Cc2ccc3cc(Oc4ccc(-c5ccn[nH]5)cn4)ccc3c2)C1` [Example 12, N-((R)-1-{6-[5-(2H-Pyrazol-3-yl)-pyridin-2-yloxy]-naphthalen-2-ylmethyl}-pyrrolidin-3-yl)-acetamide]: the IC50 in experiment [1] stood at 120 nM; against human LTA4 hydrolase it was 0.34 nM.
Consider `CC(=O)N[C@H]1CCN(Cc2ccc3cc(Oc4ccc(-c5ccn[nH]5)cn4)ccc3c2)C1` [Example 13, N-((S)-1-{6-[5-(2H-Pyrazol-3-yl)-pyridin-2-yloxy]-naphthalen-2-ylmethyl}-pyrrolidin-3-yl)-acetamide], for which the half-maximal inhibitory concentration (IC50) in experiment [1] was determined as 290 nM; at human LTA4 hydrolase, 0.79 nM.
The corresponding values for `O[C@H]1CCCN(Cc2ccc3cc(Oc4ccc(-c5ccn[nH]5)cn4)ccc3c2)C1` [Example 14, (S)-1-{6-[5-(2H-Pyrazol-3-yl)-pyridin-2-yloxy]-naphthalen-2-ylmethyl}-piperidin-3-ol] are 190 nM and 1.2 nM.
As for `O[C@@H]1CCCN(Cc2ccc3cc(Oc4ccc(-c5ccn[nH]5)cn4)ccc3c2)C1` [Example 15, (R)-1-{6-[5-(2H-Pyrazol-3-yl)-pyridin-2-yloxy]-naphthalen-2-ylmethyl}-piperidin-3-ol], the IC50 came out at 190 nM in experiment [1] and 1 nM at human LTA4 hydrolase.
The corresponding values for `CN(CCO)Cc1ccc2cc(Oc3ccc(-c4ccn[nH]4)cn3)ccc2c1` [Example 16, 2-(Methyl-{6-[5-(2H-pyrazol-3-yl)-pyridin-2-yloxy]-naphthalen-2-ylmethyl}-amino)-ethanol] are 160 nM and 0.7 nM.
On to `OCC1CCN(Cc2ccc3cc(Oc4ccc(-c5ccn[nH]5)cn4)ccc3c2)CC1` [Example 17, (1-{6-[5-(2H-Pyrazol-3-yl)-pyridin-2-yloxy]-naphthalen-2-ylmethyl}-piperidin-4-yl)-methanol], for which the IC50 in experiment [1] is 160 nM; against human LTA4 hydrolase, 0.75 nM.
Take `OC[C@H]1CCN(Cc2ccc3cc(Oc4ccc(-c5ccn[nH]5)cn4)ccc3c2)C1` [Example 18, ((S)-1-{6-[5-(2H-Pyrazol-3-yl)-pyridin-2-yloxy]-naphthalen-2-ylmethyl}-pyrrolidin-3-yl)-methanol]: the IC50 in experiment [1] amounted to 160 nM; at human LTA4 hydrolase, 0.76 nM.
The corresponding values for `CN(Cc1ccc2cc(Oc3ccc(-c4ccn[nH]4)cn3)ccc2c1)[C@@H]1CCN(C(=O)CO)C1` [Example 19, 2-Hydroxy-1-[(R)-3-(methyl-{6-[5-(2H-pyrazol-3-yl)-pyridin-2-yloxy]-naphthalen-2-ylmethyl}-amino)-pyrrolidin-1-yl]-ethanone] are 140 nM and 0.63 nM.
With `CN(C(=O)CO)[C@H]1CCN(Cc2ccc3cc(Oc4ccc(-c5ccn[nH]5)cn4)ccc3c2)C1` [Example 20, 2-Hydroxy-N-methyl-N-((S)-1-{6-[5-(2H-pyrazol-3-yl)-pyridin-2-yloxy]-naphthalen-2-ylmethyl}-pyrrolidin-3-yl)-acetamide], the IC50 in experiment [1] worked out at 150 nM; at human LTA4 hydrolase it was 0.76 nM.
Consider `CN(C(=O)CO)[C@@H]1CCN(Cc2ccc3cc(Oc4ccc(-c5ccn[nH]5)cn4)ccc3c2)C1` [Example 21, 2-Hydroxy-N-methyl-N-((R)-1-{6-[5-(2H-pyrazol-3-yl)-pyridin-2-yloxy]-naphthalen-2-ylmethyl}-pyrrolidin-3-yl)-acetamide], for which the IC50 in experiment [1] is 100 nM; against human LTA4 hydrolase, 0.67 nM.
The corresponding values for `OC[C@@H]1CCN(Cc2ccc3cc(Oc4ccc(-c5ccn[nH]5)cn4)ccc3c2)C1` [Example 22, ((R)-1-{6-[5-(2H-Pyrazol-3-yl)-pyridin-2-yloxy]-naphthalen-2-ylmethyl}-pyrrolidin-3-yl)-methanol] are 130 nM and 0.64 nM.
Consider `CN(Cc1ccc2cc(Oc3ccc(-c4ccn[nH]4)cn3)ccc2c1)[C@H]1CCN(C(=O)CO)C1` [Example 23, 2-Hydroxy-1-[(S)-3-(methyl-{6-[5-(2H-pyrazol-3-yl)-pyridin-2-yloxy]-naphthalen-2-ylmethyl}-amino)-pyrrolidin-1-yl]-ethanone], for which the results for the IC50 (in experiment [1]; on human LTA4 hydrolase) were 170 nM and 0.9 nM, respectively.
On to `COCC(=O)N1CCN(Cc2ccc3cc(Oc4ncc(-c5ccn[nH]5)cn4)ccc3c2)CC1` [Example 24, 2-Methoxy-1-(4-{6-[5-(2H-pyrazol-3-yl)-pyrimidin-2-yloxy]-naphthalen-2-ylmethyl}-piperazin-1-yl)-ethanone], for which the IC50 in experiment [1] amounted to 290 nM; against human LTA4 hydrolase, 2 nM.
The corresponding values for `CC(=O)N1CCN(Cc2ccc3cc(Oc4ncc(-c5ccn[nH]5)cn4)ccc3c2)CC1` [Example 25, 1-(4-{6-[5-(2H-Pyrazol-3-yl)-pyrimidin-2-yloxy]-naphthalen-2-ylmethyl}-piperazin-1-yl)-ethanone] are 520 nM and 1.7 nM.
The corresponding values for `OC1CCN(Cc2ccc3cc(Oc4ncc(-c5ccn[nH]5)cn4)ccc3c2)CC1` [Example 26, 1-{6-[5-(2H-Pyrazol-3-yl)-pyrimidin-2-yloxy]-naphthalen-2-ylmethyl}-piperidin-4-ol] are 240 nM and 2.3 nM.
The corresponding values for `NC(=O)C1CCN(Cc2ccc3cc(Oc4ncc(-c5ccn[nH]5)cn4)ccc3c2)CC1` [Example 27, 1-{6-[5-(2H-Pyrazol-3-yl)-pyrimidin-2-yloxy]-naphthalen-2-ylmethyl}-piperidine-4-carboxylic acid amide] are 200 nM and 1.4 nM.
In the case of `N#CC1(C(=O)N2CCN(Cc3ccc4cc(Oc5ccc(-c6ccn[nH]6)cn5)ccc4n3)CC2)CCCC1` [Example 147, 1-(4-{6-[5-(2H-Pyrazol-3-yl)-pyridin-2-yloxy]-quinolin-2-ylmethyl}-piperazine-1-carbonyl)-cyclopentanecarbonitrile], inhibition against human LTA4 hydrolase was half-maximal at 12 nM (IC50).
